Where a name gives a salt, the structure may show the parent alone.
Target: human mPGES-1 (Homo sapiens (Human), UniProt O14684)
Assay: mPGES-1 inhibiting activity (microsome fractions, PGE2 by HTRF)
Assay type: biochemical
Settings: microsomes from CHO-K1 cells transfected with human mPGES-1; PGH2 1 μM, 4° C., 60 seconds; read-out: mPGES-1 Inhibition IC50
Method: mPGES-1 microsome fractions were prepared from CHO-K1 cells transiently transfected with plasmid encoding the human mPGES-1cDNA. Microsomes were diluted with potassium phosphate buffer containing reduced glutathione (pH7.4), and DMSO containing test compound or DMSO alone was added (such that DMSO final concentration would be 1% in each) and incubated at 4° C. for 20 minutes. Then, the enzymatic reactions were initiated by the addition of PGH2 substrate (final concentration 1 μM) and incubated at 4° C. for 60 seconds. The reaction was terminated by the addition of a citrate solution (final citrate concentration 50 mM) containing ferric chloride (final concentration 1 mg/mL). PGE2 production in the enzyme reaction aliquot was measured using HTRF kit (Cisbio International, catalogue #62P2APEC). The solution free of test compound was used as positive control, and the solution free of test compound and microsome sample was used as negative control. 100% activity was defined as PGE2 production in the positive control minus PGE2 production in negative control. IC50 value was calculated by standard method.

Chain of human mPGES-1 (O14684 whole entry): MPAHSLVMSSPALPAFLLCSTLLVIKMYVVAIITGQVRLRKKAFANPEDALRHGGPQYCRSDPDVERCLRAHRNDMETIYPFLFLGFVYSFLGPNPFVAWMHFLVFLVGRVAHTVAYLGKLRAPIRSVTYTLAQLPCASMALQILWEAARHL

Point of comparison: `COCc1nc2c(C(=O)Nc3ccc4[nH]ccc4c3)cc(NC(=O)c3ccccc3C(F)(F)F)cc2[nH]1` [Example 224, N-(1H-Indol-5-yl)-2-(methoxymethyl)-6-({[2-(trifluoromethyl)phenyl]carbonyl}amino)-1H-benzimidazole-4-carboxamide], IC50 26.5 nM. Against it:
- Cc1c(Cl)cccc1NC(=O)c1cc(NC(=O)c2ccccc2C(F)(F)F)cc2[nH]c(N(CCO)CCO)nc12 [Example 144, 2-[Bis(2-hydroxyethyl)amino]-N-(3-chloro-2-methylphenyl)-6-({[2-(trifluoromethyl)phenyl]carbonyl}amino)-1H-benzimidazole-4-carboxamide hydrochloride] — 2.7-fold lower, 9.7 nM
- Cc1c(Cl)cccc1NC(=O)c1cc(NC(=O)c2ccccc2C(F)(F)F)cc2[nH]c(NCCOC(C)(C)C)nc12 [Example 176, 2-[(2-tert-Butoxyethyl)amino]-N-(3-chloro-2-methylphenyl)-6-({[2-(trifluoromethyl)phenyl]carbonyl}amino)-1H-benzimidazole-4-carboxamide hydrochloride] — 88-fold lower, 0.3 nM
- COCc1nc2c(C(=O)Nc3cccc(Cl)c3C)cc(NC(=O)c3cc(CCC(C)(C)O)ccc3Cl)cc2[nH]1 [Example 119, 6-({[2-Chloro-5-(3-hydroxy-3-methylbutyl)phenyl]carbonyl}amino)-N-(3-chloro-2-methylphenyl)-2-(methoxymethyl)-1H-benzimidazole-4-carboxamide hydrochloride] — 7.8-fold higher, 208 nM
- COCc1nc2c(C(=O)Nc3cccc(Cl)c3C)cc(NC(=O)c3cc(C#CCOC(C)(C)C)ccc3Cl)cc2[nH]1 [Example 117, 6-({[5-(3-tert-Butoxy-1-propynyl)-2-chlorophenyl]carbonyl}amino)-N-(3-chloro-2-methylphenyl)-2-(methoxymethyl)-1H-benz imidazole-4-carboxamide hydrochloride] — 22-fold higher, 584 nM
- COCc1nc2c(C(=O)NCc3cccs3)cc(NC(=O)c3ccccc3C(F)(F)F)cc2[nH]1 [Example 223, 2-(Methoxymethyl)-N-(thiophen-2-ylmethyl)-6-({[2-(trifluoromethyl)phenyl]carbonyl}amino)-1H-benzimidazole-4-carboxamide hydrochloride] — 2.6-fold higher, 68.2 nM
- Cn1cnc2c(C(=O)NC3CCCCC3)cc(NC(=O)c3ccccc3C(F)(F)F)cc21 [Example 47, N-Cyclohexyl-1-methyl-6-({[2-(trifluoromethyl)phenyl]carbonyl}amino)-1H-benzimidazole-4-carboxamide] — 10-fold higher, 270 nM
- COCc1nc2c(C(=O)NCC(C)(C)C)cc(NC(=O)c3ccccc3C(F)(F)F)cc2[nH]1 [Example 226, N-(2,2-Dimethylpropyl)-2-(methoxymethyl)-6-({[2-(trifluoromethyl)phenyl]carbonyl}amino)-1H-benzimidazole-4-carboxamide hydrochloride] — within 1.5-fold, 26.9 nM
- COCc1nc2c(C(=O)Nc3cccnc3)cc(NC(=O)c3ccccc3C(F)(F)F)cc2[nH]1 [Example 216, 2-(Methoxymethyl)-N-(pyridin-3-yl)-6-({[2-(trifluoromethyl)phenyl]carbonyl}amino)-1H-benzimidazole-4-carboxamide hydrochloride] — 7.7-fold higher, 204 nM
- O=C(Nc1cc(C(=O)NC2CCCCC2)c2[nH]ncc2c1)c1ccccc1C(F)(F)F [Example 9, N-Cyclohexyl-5-({[2-(trifluoromethyl)phenyl]carbonyl}amino)-1H-indazole-7-carboxamide] — 17-fold higher, 452 nM
- COCc1nc2c(C(=O)NCc3ccccc3Cl)cc(NC(=O)c3ccccc3C(F)(F)F)cc2n1C [Example 91, N-(2-Chlorobenzyl)-2-(methoxymethyl)-1-methyl-6-({[2-(trifluoromethyl)phenyl]carbonyl}amino)-1H-benzimidazole-4-carboxamide] — 12-fold higher, 327 nM
- COCc1nc2c(C(=O)Nc3nc4cc(Cl)ccc4o3)cc(NC(=O)c3ccccc3C(F)(F)F)cc2[nH]1 [Example 228, N-(5-Chloro-1,3-benzoxazol-2-yl)-2-(methoxymethyl)-6-({[2-(trifluoromethyl)phenyl]carbonyl}amino)-1H-benzimidazole-4-carboxamide hydrochloride] — 16-fold lower, 1.7 nM
- COCc1nc2c(C(=O)Nc3cccc(Cl)c3C)cc(NC(=O)c3cc(OCC(F)F)ccc3Cl)cc2[nH]1 [Example 248, 6-({[2-Chloro-5-(2,2-difluoroethoxy)phenyl]carbonyl}amino)-N-(3-chloro-2-methylphenyl)-2-(methoxymethyl)-1H-benzimidazole-4-carboxamide hydrochloride] — 7.6-fold higher, 201 nM
- COCc1nc2c(C(=O)Nc3ccsc3)cc(NC(=O)c3ccccc3C(F)(F)F)cc2[nH]1 [Example 220, 2-(Methoxymethyl)-N-(thiophen-3-yl)-6-({[2-(trifluoromethyl)phenyl]carbonyl}amino)-1H-benzimidazole-4-carboxamide hydrochloride] — 3.1-fold lower, 8.6 nM
- O=C(Nc1cc(C(=O)NCc2ccccc2C(F)(F)F)c2[nH]ncc2c1)c1ccccc1C(F)(F)F [Example 10, N-[2-(Trifluoromethyl)benzyl]-5-({[2-(trifluoromethyl)phenyl]carbonyl}amino)-1H-indazole-7-carboxamide] — 13-fold higher, 333 nM
- O=C(Nc1cc(C(=O)NCC2(O)CCCCC2)c2nc[nH]c2c1)c1ccccc1C(F)(F)F [Example 5, N-[(1-Hydroxycyclohexyl)methyl]-6-({[2-(trifluoromethyl)phenyl]carbonyl}amino)-1H-benzimidazole-4-carboxamide] — 17-fold higher, 453 nM
- COCc1nc2c(C(=O)Nc3cccc4nsnc34)cc(NC(=O)c3ccccc3C(F)(F)F)cc2[nH]1 [Example 221, N-(2,1,3-Benzothiadiazol-4-yl)-2-(methoxymethyl)-6-({[2-(trifluoromethyl)phenyl]carbonyl}amino)-1H-benzimidazole-4-carboxamide hydrochloride] — 12-fold lower, 2.2 nM
- COCc1nc2c(C(=O)Nc3cccc(Cl)c3C)cc(NC(=O)c3ccc(C(F)(F)F)cc3C(F)(F)F)cc2[nH]1 [Example 111, 6-({[2,4-Bis(trifluoromethyl)phenyl]carbonyl}amino)-N-(3-chloro-2-methylphenyl)-2-(methoxymethyl)-1H-benzimidazole-4-carboxamide hydrochloride] — 29-fold higher, 765 nM
- COCc1nc2c(C(=O)Nc3cccs3)cc(NC(=O)c3ccccc3C(F)(F)F)cc2[nH]1 [Example 227, 2-(Methoxymethyl)-N-(thiophen-2-yl)-6-({[2-(trifluoromethyl)phenyl]carbonyl}amino)-1H-benzimidazole-4-carboxamide hydrochloride] — 260-fold lower, 0.1 nM
- COCc1nc2c(C(=O)Nc3cccc(Cl)c3C)cc(NC(=O)c3cc(OCCCC(F)(F)F)ccc3Cl)cc2[nH]1 [Example 249, N-(3-Chloro-2-methylphenyl)-6-({[2-chloro-5-(4,4,4-trifluorobutoxy)phenyl]carbonyl}amino)-2-(methoxymethyl)-1H-benzimidazole-4-carboxamide hydrochloride] — 15-fold higher, 404 nM
- COCc1nc2c(C(=O)Nc3ccc4c(c3)S(=O)(=O)C=C4)cc(NC(=O)c3ccccc3C(F)(F)F)cc2[nH]1 [Example 222, N-(1,1-Dioxide-1-benzothiophen-6-yl)-2-(methoxymethyl)-6-({[2-(trifluoromethyl)phenyl]carbonyl}amino)-1H-benzimidazole-4-carboxamide hydrochloride] — 25-fold higher, 661 nM
- Cc1c(Cl)cccc1NC(=O)c1cc(NC(=O)c2ccccc2C(F)(F)F)cc2[nH]c(NCC3(C)COC3)nc12 [Example 159, N-(3-Chloro-2-methylphenyl)-2-{[(3-methyloxetan-3-yl)methyl]amino}-6-({[2-(trifluoromethyl)phenyl]carbonyl}amino)-1H-benzimidazole-4-carboxamide hydrochloride] — 15-fold higher, 403 nM
- O=C(Nc1cc2c(c(C(=O)NCc3ccccc3C(F)(F)F)c1)OCC2)c1ccccc1C(F)(F)F [Example 6, N-[2-(Trifluoromethyl)benzyl]-5-({[2-(trifluoromethyl)phenyl]carbonyl}amino)-2,3-dihydro-1-benzofuran-7-carboxamide] — within 1.5-fold, 27.4 nM
- COCc1nc2c(C(=O)Nc3nc4ccccc4s3)cc(NC(=O)c3ccccc3C(F)(F)F)cc2[nH]1 [Example 225, N-(1,3-Benzothiazol-2-yl)-2-(methoxymethyl)-6-({[2-(trifluoromethyl)phenyl]carbonyl}amino)-1H-benzimidazole-4-carboxamide hydrochloride] — 1.7-fold lower, 15.6 nM

System: A549 cells
Assay: Inhibition of PGE2 production in A549 cell (IL-1β stimulated)
Assay type: cell-based, human
Settings: Homo sapiens, A549, 24 h, IL-1β 5 ng/well, PGE2 in culture medium
Method: Human A549 cells were seeded onto a 96-well plate at 2×10^4 cells/100 μL per well and allowed to incubate overnight. After removing the culture medium and washing with phosphate buffered saline, the culture medium was replaced by RPMI culture medium with 3% FBS containing a DMSO solution containing test compound or DMSO alone (such that DMSO final concentration would be […] in each). After incubation for 60 minutes, IL-1β (5 ng/well) was added and incubated at 37° C. for 24 hours. Then, PGE2 in the culture medium was measured using HTRF kit (Cisbio International, catalogue #62P2APEC), and PGF2α in the culture medium was measured using EIA kit (Cayman Chemical Company, catalogue #516011). The solution free of test compound was used as positive control, and the solution free of test compound and IL-1β was used as negative control. 100% activity was defined as PGE2 and PGF2α production in the positive control minus PGE2 and PGF2α production in the negative control. IC50 value was calculated by standard method.

Point of comparison: `O=C(Nc1cc(C(=O)NCc2ccccc2C(F)(F)F)c2nc[nH]c2c1)c1ccccc1C(F)(F)F` [Example 1, N-[2-(Trifluoromethyl)benzyl]-6-({[2-(trifluoromethyl)phenyl]carbonyl}amino)-1H-benzimidazol-4-carboxamide], IC50 88.9 nM. Against it:
- Cc1c(Cl)cccc1NC(=O)c1cc(NC(=O)c2ccccc2C(F)(F)F)cc2[nH]c(N(CCO)CCO)nc12 [Example 144, 2-[Bis(2-hydroxyethyl)amino]-N-(3-chloro-2-methylphenyl)-6-({[2-(trifluoromethyl)phenyl]carbonyl}amino)-1H-benzimidazole-4-carboxamide hydrochloride] — 34-fold higher, 2990 nM
- Cc1c(Cl)cccc1NC(=O)c1cc(NC(=O)c2ccccc2C(F)(F)F)cc2[nH]c(NCCOC(C)(C)C)nc12 [Example 176, 2-[(2-tert-Butoxyethyl)amino]-N-(3-chloro-2-methylphenyl)-6-({[2-(trifluoromethyl)phenyl]carbonyl}amino)-1H-benzimidazole-4-carboxamide hydrochloride] — 1.6-fold higher, 138 nM

From US9216968B2, “Heterocyclic derivative and pharmaceutical drug” (NIPPON SHINYAKU CO., LTD., priority 2011, dated 2015)
